Measured values as given in patent US11066396B2 (priority 2016, dated 2021).

Tests used:
[1] = target: HDAC1 (Homo sapiens (Human), UniProt Q13547); settings: read-out: HDAC1 IC50
[2] = target: HDAC5 (Homo sapiens (Human), UniProt Q9UQL6); settings: read-out: HDAC5 IC50
[3] = target: HDAC8 (Homo sapiens (Human), UniProt Q9BY41); settings: read-out: HDAC8 IC50
HDAC8, sequence (Q9BY41 whole entry): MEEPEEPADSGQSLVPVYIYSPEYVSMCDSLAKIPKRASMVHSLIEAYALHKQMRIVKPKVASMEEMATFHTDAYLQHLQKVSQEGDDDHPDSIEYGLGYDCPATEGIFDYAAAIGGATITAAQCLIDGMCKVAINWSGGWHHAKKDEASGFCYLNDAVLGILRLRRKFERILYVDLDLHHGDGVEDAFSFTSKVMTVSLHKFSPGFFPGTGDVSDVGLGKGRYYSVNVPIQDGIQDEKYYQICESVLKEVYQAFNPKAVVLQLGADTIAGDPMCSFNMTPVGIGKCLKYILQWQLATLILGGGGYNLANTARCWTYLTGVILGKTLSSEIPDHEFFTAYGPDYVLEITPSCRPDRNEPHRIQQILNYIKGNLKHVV

HDAC5, sequence (Q9UQL6 656-1122): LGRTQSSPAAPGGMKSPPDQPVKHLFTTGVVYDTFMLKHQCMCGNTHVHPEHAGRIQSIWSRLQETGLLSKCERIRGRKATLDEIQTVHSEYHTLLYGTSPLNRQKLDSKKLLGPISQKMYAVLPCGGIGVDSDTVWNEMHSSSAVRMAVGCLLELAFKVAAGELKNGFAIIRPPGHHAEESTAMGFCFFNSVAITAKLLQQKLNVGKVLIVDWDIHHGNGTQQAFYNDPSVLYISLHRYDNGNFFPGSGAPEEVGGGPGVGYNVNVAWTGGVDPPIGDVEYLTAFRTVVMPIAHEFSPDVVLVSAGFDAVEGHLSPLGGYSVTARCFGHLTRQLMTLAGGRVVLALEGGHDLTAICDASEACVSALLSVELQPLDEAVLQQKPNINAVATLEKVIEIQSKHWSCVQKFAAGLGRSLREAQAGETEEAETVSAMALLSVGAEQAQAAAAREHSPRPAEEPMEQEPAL
HDAC1, sequence (Q13547 whole entry): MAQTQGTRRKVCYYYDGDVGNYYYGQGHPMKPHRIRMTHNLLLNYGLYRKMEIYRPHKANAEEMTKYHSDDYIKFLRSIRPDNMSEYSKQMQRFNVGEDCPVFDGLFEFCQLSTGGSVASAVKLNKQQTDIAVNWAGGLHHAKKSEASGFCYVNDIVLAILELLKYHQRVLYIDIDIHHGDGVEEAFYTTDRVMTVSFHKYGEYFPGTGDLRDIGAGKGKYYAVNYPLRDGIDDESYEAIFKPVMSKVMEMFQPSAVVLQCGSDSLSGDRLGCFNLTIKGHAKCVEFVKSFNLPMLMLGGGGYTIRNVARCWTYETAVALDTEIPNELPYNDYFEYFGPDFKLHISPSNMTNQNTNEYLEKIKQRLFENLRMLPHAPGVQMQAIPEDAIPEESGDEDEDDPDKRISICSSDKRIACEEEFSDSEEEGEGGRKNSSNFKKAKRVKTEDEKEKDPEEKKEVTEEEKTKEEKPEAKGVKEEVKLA

**Q.** `CC(C(=O)N(Cc1ccc(-c2noc(C(F)(F)F)n2)cn1)c1cccc(F)c1)c1ccn(C)n1` (racemic) [Example 58, N-(3-fluorophenyl)-2-(1-methyl-1H-pyrazol-3-yl)-N-((5-(5-(trifluoromethyl)-1,2,4-oxadiazol-3-yl)pyridin-2-yl)methyl)propanamide] was tested. Which IC50 [1] did it give?
**A.** 220 nM

**Q.** What about the IC50 [2] of the same compound?
**A.** 730 nM

**Q.** What about the IC50 [3] of the same compound?
**A.** 1.7 µM

**Q.** Which IC50 [1] does the source give for `O=C1CCC(c2ccccc2F)N1c1ccc(-c2noc(C(F)(F)F)n2)cc1F` (racemic) [Example 118, 1-(2-fluoro-4-(5-(trifluoromethyl)-1,2,4-oxadiazol-3-yl)phenyl)-5-(2-fluorophenyl)pyrrolidin-2-one] here?
**A.** 570 nM

**Q.** What about the IC50 [2] of the same compound?
**A.** 130 nM

**Q.** What about the IC50 [3] of the same compound?
**A.** 2.5 µM

**Q.** What does the source list for `O=C(C(Cc1ccc(-c2noc(C(F)(F)F)n2)cn1)c1cccc(C(F)(F)F)c1)N1CC[S+]([O-])CC1` (racemic) [Example 199, 4-(3-{5-[5-(trifluoromethyl)-1,2,4-oxadiazol-3-yl]pyridin-2-yl}-2-[3-(trifluoromethyl)phenyl]propanoyl)-llambda~4~,4-thiazinan-1-one]?
**A.** IC50 [1]: 4100 nM; IC50 [2]: 2100 nM; IC50 [3]: 9.9 µM

**Q.** For `CC(Oc1cc(-c2noc(C(F)(F)F)n2)ccn1)c1nc2ccccc2[nH]1` (racemic) [Example 203, 2-[1-({4-[5-(trifluoromethyl)-1,2,4-oxadiazol-3-yl]pyridin-2-yl}oxy)ethyl]-1H-benzimidazole], which IC50 [1] is on record?
**A.** 130 nM

**Q.** And the IC50 [2]?
**A.** 130 nM

**Q.** And the IC50 [3]?
**A.** 0.9 µM

**Q.** Which IC50 [1] does the source give for `CC(Oc1nccc(-c2noc(C(F)(F)F)n2)c1Cl)c1cccnc1` (racemic) [Example 256, 3-chloro-2-[1-(pyridin-3-yl)ethoxy]-4-[5-(trifluoromethyl)-1,2,4-oxadiazol-3-yl]pyridine] here?
**A.** 3300 nM

**Q.** What about the IC50 [2] of the same compound?
**A.** 200 nM

**Q.** And the IC50 [3]?
**A.** 2.3 µM

**Q.** Which IC50 [1] does the source give for `O=C1NCCCC1NCc1ccc(-c2noc(C(F)(F)F)n2)cn1` (racemic) [Example 458, 3-[({5-[5-(trifluoromethyl)-1,2,4-oxadiazol-3-yl]pyridin-2-yl}methyl)amino]piperidin-2-one] here?
**A.** 8300 nM

**Q.** What about the IC50 [2] of the same compound?
**A.** 290 nM

**Q.** And the IC50 [3]?
**A.** 2.8 µM

**Q.** Which IC50 [1] does the source give for `CC(C)C(=O)NC(Cc1ccc(-c2noc(C(F)(F)F)n2)cn1)c1cccc(C(F)(F)F)c1` (racemic) [Example 478, 2-methyl-N-(2-{5-[5-(trifluoromethyl)-1,2,4-oxadiazol-3-yl]pyridin-2-yl}-1-[3-(trifluoromethyl)phenyl]ethyl)propanamide] here?
**A.** 680 nM

**Q.** What about the IC50 [2] of the same compound?
**A.** 500 nM

**Q.** And the IC50 [3]?
**A.** 45 µM

**Q.** With `CCCC(=O)NC(Cc1ccc(-c2noc(C(F)(F)F)n2)cn1)c1cccc(C(F)(F)F)c1` (racemic) [Example 479, N-(2-{5-[5-(trifluoromethyl)-1,2,4-oxadiazol-3-yl]pyridin-2-yl}-1-[3-(trifluoromethyl)phenyl]ethyl)butanamide] as the compound, how does the IC50 [1] read?
**A.** 610 nM

**Q.** What about the IC50 [2] of the same compound?
**A.** 440 nM

**Q.** And the IC50 [3]?
**A.** 45 µM

**Q.** How did the IC50 [1] turn out when `COCC(=O)NC(Cc1ccc(-c2noc(C(F)(F)F)n2)cn1)c1cccc(C(F)(F)F)c1` (racemic) [Example 480, 2-methoxy-N-(2-{5-[5-(trifluoromethyl)-1,2,4-oxadiazol-3-yl]pyridin-2-yl}-1-[3-(trifluoromethyl)phenyl]ethyl)acetamide] was run?
**A.** 670 nM

**Q.** And the IC50 [2]?
**A.** 620 nM

**Q.** And the IC50 [3]?
**A.** 5.3 µM

**Q.** For `CC1(C(=O)NC(Cc2ccc(-c3noc(C(F)(F)F)n3)cn2)c2cccc(C(F)(F)F)c2)COC1` (racemic) [Example 482, 3-methyl-N-(2-{5-[5-(trifluoromethyl)-1,2,4-oxadiazol-3-yl]pyridin-2-yl}-1-[3-(trifluoromethyl)phenyl]ethyl)oxetane-3-carboxamide], which IC50 [1] is on record?
**A.** 790 nM

**Q.** And the IC50 [2]?
**A.** 480 nM

**Q.** And the IC50 [3]?
**A.** 8.5 µM

**Q.** Which results are given for `O=C(NC(Cc1ccc(-c2noc(C(F)(F)F)n2)cn1)c1cccc(C(F)(F)F)c1)C1CCOCC1` (racemic) [Example 483, N-(2-{5-[5-(trifluoromethyl)-1,2,4-oxadiazol-3-yl]pyridin-2-yl}-1-[3-(trifluoromethyl)phenyl]ethyl)oxane-4-carboxamide]?
**A.** IC50 [1]: 630 nM; IC50 [2]: 510 nM; IC50 [3]: 6.1 µM

**Q.** What does the source list for `O=C(NC(Cc1ccc(-c2noc(C(F)(F)F)n2)cn1)c1cccc(C(F)(F)F)c1)c1ncccn1` (racemic) [Example 484, N-(2-{5-[5-(trifluoromethyl)-1,2,4-oxadiazol-3-yl]pyridin-2-yl}-1-[3-(trifluoromethyl)phenyl]ethyl)pyrimidine-2-carboxamide]?
**A.** IC50 [1]: 600 nM; IC50 [2]: 720 nM; IC50 [3]: 2.5 µM

**Q.** `O=C(CN1CCOCC1)NC(Cc1ccc(-c2noc(C(F)(F)F)n2)cn1)c1cccc(C(F)(F)F)c1` (racemic) [Example 485, 2-(morpholin-4-yl)-N-(2-{5-[5-(trifluoromethyl)-1,2,4-oxadiazol-3-yl]pyridin-2-yl}-1-[3-(trifluoromethyl)phenyl]ethyl)acetamide] was tested. Which IC50 [1] did it give?
**A.** 1100 nM

**Q.** And the IC50 [2]?
**A.** 1100 nM

**Q.** And the IC50 [3]?
**A.** 11 µM

**Q.** What does the source list for `O=C(NC(Cc1ccc(-c2noc(C(F)(F)F)n2)cn1)c1cccc(C(F)(F)F)c1)c1cccnc1` (racemic) [Example 487, N-(2-{5-[5-(trifluoromethyl)-1,2,4-oxadiazol-3-yl]pyridin-2-yl}-1-[3-(trifluoromethyl)phenyl]ethyl)pyridine-3-carboxamide]?
**A.** IC50 [1]: 670 nM; IC50 [2]: 380 nM; IC50 [3]: 5.3 µM

**Q.** For `O=C1COC[C@@H](c2ccccc2)N1c1ccc(-c2noc(C(F)(F)F)n2)c(F)c1` [Example 2, (R)-4-(3-Fluoro-4-(5-(trifluoromethyl)-1,2,4-oxadiazol-3-yl)phenyl)-5-phenylmorpholin-3-one], which IC50 [1] is on record?
**A.** 480 nM

**Q.** What about the IC50 [2] of the same compound?
**A.** 18 nM

**Q.** And the IC50 [3]?
**A.** 4.6 µM

**Q.** For `Cc1noc([C@@H]2CCC(=O)N2c2ccc(-c3noc(C(F)(F)F)n3)c(F)c2F)n1` [Example 12, (S)-1-(2,3-Difluoro-4-(5-(trifluoromethyl)-1,2,4-oxadiazol-3-yl)phenyl)-5-(3-methyl-1,2,4-oxadiazol-5-yl)pyrrolidin-2-one], which IC50 [1] is on record?
**A.** 2000 nM

**Q.** And the IC50 [2]?
**A.** 11 nM

**Q.** And the IC50 [3]?
**A.** 6 µM

**Q.** For `O=C1OC[C@@H](c2ccccc2)N1c1cc(F)c(-c2noc(C(F)(F)F)n2)cc1F` [Example 16, (R)-3-(2,5-Difluoro-4-(5-(trifluoromethyl)-1,2,4-oxadiazol-3-yl)phenyl)-4-phenyloxazolidin-2-one], which IC50 [1] is on record?
**A.** 1000 nM

**Q.** What about the IC50 [2] of the same compound?
**A.** 19 nM

**Q.** What about the IC50 [3] of the same compound?
**A.** 6 µM

**Q.** What does the source list for `O=C(C1CCS(=O)(=O)CC1)N(Cc1ccc(-c2noc(C(F)(F)F)n2)cc1)c1cccc(C(F)(F)F)c1` [Example 30, N-(4-(5-(Trifluoromethyl)-1,2,4-oxadiazol-3-yl)benzyl)-N-(3-(trifluoromethyl)phenyl)tetrahydro-2H-thiopyran-4-carboxamide 1,1-dioxide]?
**A.** IC50 [1]: 1340 nM; IC50 [2]: 1200 nM; IC50 [3]: 4.3 µM

**Q.** Which IC50 [1] does the source give for `O=C1CNCC(c2ccccc2)N1c1ccc(-c2noc(C(F)(F)F)n2)cc1` (stereo not drawn) [Example 39, 6-phenyl-1-(4-(5-(trifluoromethyl)-1,2,4-oxadiazol-3-yl)phenyl)piperazin-2-one] here?
**A.** 550 nM

**Q.** What about the IC50 [2] of the same compound?
**A.** 25 nM

**Q.** What about the IC50 [3] of the same compound?
**A.** 1.6 µM

**Q.** `O=C1CCCC(c2ccccc2)N1c1ccc(-c2noc(C(F)(F)F)n2)cc1` (stereo not drawn) [Example 40, 6-phenyl-1-(4-(5-(trifluoromethyl)-1,2,4-oxadiazol-3-yl)phenyl)piperidin-2-one] was tested. Which IC50 [1] did it give?
**A.** 410 nM

**Q.** What about the IC50 [2] of the same compound?
**A.** 34 nM

**Q.** What about the IC50 [3] of the same compound?
**A.** 0.8 µM

**Q.** Which IC50 [1] does the source give for `FC(F)c1cc(OCc2ccc(-c3noc(C(F)(F)F)n3)cn2)ncn1` [Example 306, 4-(difluoromethyl)-6-({5-[5-(trifluoromethyl)-1,2,4-oxadiazol-3-yl]pyridin-2-yl}methoxy)pyrimidine] here?
**A.** 1300 nM

**Q.** And the IC50 [2]?
**A.** 220 nM

**Q.** Which results are given for `Cc1cncnc1OCc1ccc(-c2noc(C(F)(F)F)n2)cn1` [Example 307, 5-methyl-4-({5-[5-(trifluoromethyl)-1,2,4-oxadiazol-3-yl]pyridin-2-yl}methoxy)pyrimidine]?
**A.** IC50 [1]: 2200 nM; IC50 [2]: 620 nM

**Q.** What does the source list for `COc1ncccc1OCc1ccc(-c2noc(C(F)(F)F)n2)cn1` [Example 308, 2-methoxy-3-({5-[5-(trifluoromethyl)-1,2,4-oxadiazol-3-yl]pyridin-2-yl}methoxy)pyridine]?
**A.** IC50 [1]: 740 nM; IC50 [2]: 310 nM

**Q.** With `FC(F)(F)c1nc(-c2ccc(COc3cc(Cl)ncn3)nc2)no1` [Example 309, 4-chloro-6-({5-[5-(trifluoromethyl)-1,2,4-oxadiazol-3-yl]pyridin-2-yl}methoxy)pyrimidine] as the compound, how does the IC50 [1] read?
**A.** 4200 nM

**Q.** What about the IC50 [2] of the same compound?
**A.** 450 nM

**Q.** For `FC(F)(F)c1nc(-c2ccc(COc3ccc(Cl)nc3)nc2)no1` [Example 310, 2-chloro-5-({5-[5-(trifluoromethyl)-1,2,4-oxadiazol-3-yl]pyridin-2-yl}methoxy)pyridine], which IC50 [1] is on record?
**A.** 2400 nM

**Q.** What about the IC50 [2] of the same compound?
**A.** 770 nM

**Q.** `FC(F)(F)c1nc(-c2ccc(COc3ccc4cnccc4n3)nc2)no1` [Example 311, 2-({5-[5-(trifluoromethyl)-1,2,4-oxadiazol-3-yl]pyridin-2-yl}methoxy)-1,6-naphthyridine] was tested. Which IC50 [1] did it give?
**A.** 880 nM

**Q.** And the IC50 [2]?
**A.** 540 nM

**Q.** How did the IC50 [1] turn out when `CC1(C)COCCN1C(=O)[C@@H]1CCC(=O)N1c1ccc(-c2noc(C(F)(F)F)n2)c(F)c1` [Example 344, (5S)-5-[(3,3-dimethylmorpholin-4-yl)carbonyl]-1-{3-fluoro-4-[5-(trifluoromethyl)-1,2,4-oxadiazol-3-yl]phenyl}pyrrolidin-2-one] was run?
**A.** 45000 nM

**Q.** And the IC50 [2]?
**A.** 1900 nM

**Q.** With `CC1(C)C(=O)NCCN1C(=O)[C@@H]1CCC(=O)N1c1ccc(-c2noc(C(F)(F)F)n2)c(F)c1` [Example 345, 4-(1-{3-fluoro-4-[5-(trifluoromethyl)-1,2,4-oxadiazol-3-yl]phenyl}-5-oxo-L-prolyl)-3,3-dimethylpiperazin-2-one] as the compound, how does the IC50 [1] read?
**A.** 43000 nM

**Q.** And the IC50 [2]?
**A.** 1500 nM

**Q.** How did the IC50 [1] turn out when `CCS(=O)(=O)N(Cc1ccc(-c2noc(C(F)(F)F)n2)cc1)c1cccc(C(F)(F)F)c1` [Example 491, N-({4-[5-(trifluoromethyl)-1,2,4-oxadiazol-3-yl]phenyl}methyl)-N-[3-(trifluoromethyl)phenyl]ethanesulfonamide] was run?
**A.** 820 nM

**Q.** What about the IC50 [2] of the same compound?
**A.** 140 nM
